The text below walks through data of ChEMBL document CHEMBL4390668, “Discovery and Structural Optimization of Acridones as Broad-Spectrum Antimalarials” (J Med Chem, 2019).

A short description of series [1]: Half life in human liver microsomes at 1 uM by LC-MS analysis. The format is ADME, Microsome.
Series [2] concerns HepG2. Description: Cytotoxicity against human HepG2 cells measured after 24 to 36 hrs by resazurin dye based fluorescence assay. The format is cell-based.
For series [3], the system named is Plasmodium falciparum. Description: Antimalarial activity against multidrug-resistant Plasmodium falciparum Dd2 infected in human erythrocytes by SYBR green 1-based fluorescence assay. Format: functional, organism-based.
Series [4] relates to Plasmodium falciparum. The series can be described thus: Antimalarial activity against multidrug-resistant Plasmodium falciparum 7G8 infected in human erythrocytes by SYBR green 1-based fluorescence assay. Format: functional, organism-based.
In series [5] the test system is Plasmodium berghei. Description: Antimalarial activity against luciferase-expressing Plasmodium berghei ANKA 676m1cl1 sporozoites infected in human HepG2A16 cells measured after 45 hrs by luciferase-luciferin based reporter assay. The format is functional, organism-based. As to conditions: ANKA 676m1cl1, HepG2A16, 45 h. On the technique in general: Reporter assays use an easily measured gene product as a stand-in for the process of interest.

In series [6] the test system is Plasmodium falciparum. Description: Antimalarial activity against chloroquine-sensitive Plasmodium falciparum D6 infected in human erythrocytes by SYBR green 1-based fluorescence assay. Format: functional, organism-based.
A short description of series [7]: Half life in mouse liver microsomes at 1 uM by LC-MS analysis. The format is ADME, Microsome. A general note: Liver microsomes are a subcellular fraction often used to study metabolism.
A short description of series [8]: Selectivity index, ratio of IC50 for human HepG2 cells to IC50 for chloroquine-sensitive Plasmodium falciparum D6 infected in human erythrocytes. Format: toxicity, cell-based. As to conditions: read-out: Ratio IC50.
The subject of series [9] is Plasmodium falciparum. The series can be described thus: Antimalarial activity against atovaquone-resistant Plasmodium falciparum Tm90-C2B infected in human erythrocytes by SYBR green 1-based fluorescence assay. The format is functional, organism-based.

Some results are limits rather than exact numbers.

What is called half-life is how long it takes for the measured level to halve. Read a high half-life as slow loss. In general, IC50 refers to the concentration that inhibits the measured activity by half. A higher IC50 goes with weaker potency. Turning to `CCN(CC)CCOc1ccc2c(=O)c3ccc(F)cc3[nH]c2c1`, the half-life at 1 µM in series [1] and in series [7] was more than 60 min each time. For the same molecule, the IC50 in [2] was found to be 47900 nM; in series [3], 485 nM; in series [4] it was 353 nM; in [5] it was 119 nM; in series [6], 377 nM; in series [9], 1670 nM. The selectivity ratio in series [8] worked out at 127.
On to `CCCN(CCC)CCOc1ccc2c(=O)c3ccc(Cl)cc3[nH]c2c1`, for which the half-life at 1 µM in series [1] and in [7] was more than 60 min throughout. The IC50 in series [2] amounted to 40600 nM; in [3], 11 nM; in series [4] it was 9.1 nM; in series [5], 14.8 nM; in [6], 2.5 nM; in [9], 1540 nM. Moreover, the selectivity ratio in [8] amounted to 16300.
Take `O=c1c2ccc(Cl)cc2[nH]c2cc(OCCN3CCCC3)ccc12`: the IC50 in series [2] amounted to 25500 nM; in [3] it was 781 nM; in series [4], 959 nM; in series [5] it was 456 nM; in series [6], 529 nM; in [9], 1500 nM. Besides, in series [8], the selectivity ratio stood at 48.
`CCN(CC)CCCCCOc1ccc2c(=O)c3ccc(Cl)cc3[nH]c2c1`: the half-life at 1 µM in series [1] and in series [7] was more than 60 min each time. Besides, the IC50 in [2] is 31300 nM; in series [3] it was 511 nM; in series [5] it was 202 nM; in [6] it was 540 nM; in series [9], 1040 nM. Moreover, the selectivity ratio in [8] was determined as 58.
In the case of `CCCN(CCC)CCOc1ccc2c(=O)c3c(Cl)cc(OC)cc3[nH]c2c1`, the half-life at 1 µM in [1] was found to be 7 min; in series [7], 10 min. For the same molecule, the IC50 in [2] was more than 200000 nM; in series [3], 4.2 nM; in series [4] it was 6.2 nM; in series [5], 2.9 nM; in series [6], 0.65 nM; in series [9], 81 nM. The selectivity ratio in series [8] is more than 308000.
As to `CCN(CC)CCCOc1ccc2c(=O)c3ccc(Cl)cc3[nH]c2c1`, the half-life at 1 µM is more than 60 min in series [1] and 34 min in series [7]. Besides, the IC50 worked out at 19700 nM in series [2]; 254 nM in series [3]; 294 nM in [4]; 436 nM in [5]; 272 nM in series [6]; 1890 nM in series [9]. In addition, the selectivity ratio in series [8] is 72.
Turning to `CC(C)(C)NCCCCOc1ccc2c(=O)c3c(F)cc(F)cc3[nH]c2c1`, the half-life at 1 µM in series [1] and in series [7] was more than 60 min throughout. Besides, the IC50 was 101000 nM in series [2]; 265 nM in series [3]; 14 nM in [4]; 362 nM in series [5]; 75 nM in series [6]; more than 2500 nM in series [9]. In series [8], the selectivity ratio stood at 1350.
With `O=c1c2ccc(OCCCCl)cc2[nH]c2cc(Cl)cc(Cl)c12`, the half-life at 1 µM in series [1] was more than 60 min; in series [7], 55 min. Besides, the IC50 in [2] is more than 100000 nM; in series [3], 2.9 nM; in series [4], 6.6 nM; in series [5], 523 nM; in [6], 2.2 nM; in series [9], 70 nM. In addition, in series [8], the selectivity ratio was more than 45500.
Take `CCN(CC)CCOc1ccc2c(=O)c3cc(Cl)ccc3[nH]c2c1`: the IC50 is more than 100000 nM in series [2]; 351 nM in series [3]; 304 nM in [4]; 221 nM in series [5]; 1160 nM in [9]. Besides, in series [8], the selectivity ratio is more than 473.
For `O=c1c2ccc(OCCCl)cc2[nH]c2ccc(Cl)c(Cl)c12`, the half-life at 1 µM in [1] and in series [7] was more than 60 min in each case. Further, the IC50 in series [2] is more than 100000 nM; in [3], 27 nM; in series [4] it was 45 nM; in series [5], 183 nM; in series [6], 2.5 nM; in series [9], 1380 nM. Moreover, the selectivity ratio in series [8] was more than 40000.
Regarding `CCN(CC)CCOc1ccc2c(=O)c3ccc(Br)cc3[nH]c2c1`, the half-life at 1 µM in [1] and in series [7] was more than 60 min each time. Besides, the IC50 in series [2] is more than 40000 nM; in series [3], 34 nM; in series [4], 37 nM; in series [5], 100 nM; in series [6], 25 nM; in series [9], 968 nM. Also, the selectivity ratio in [8] was more than 1600.
Consider `CCN(CC)CCOc1ccc2c(=O)c3ccccc3[nH]c2c1`, for which the concentration for half-maximal inhibition (IC50) in [2] came out at 96800 nM; in series [3], 1190 nM; in series [5] it was 503 nM; in series [6] it was 1350 nM; in series [9], 2530 nM. In series [8], the selectivity ratio is 72.
As for `O=c1c2ccc(OCCCCCl)cc2[nH]c2cc(F)cc(F)c12`, the half-life at 1 µM came to 14 min in series [1] and 6 min in series [7]. For the same molecule, the half-maximal inhibitory concentration (IC50) in series [2] was more than 100000 nM; in series [3], 0.16 nM; in series [4], 0.5 nM; in [5], 17 nM; in series [6], 0.12 nM; in [9] it was 40 nM. In addition, in series [8], the selectivity ratio was more than 100000.
Regarding `CCCN(CCC)CCOc1ccc2[nH]c3cc(OC)cc(F)c3c(=O)c2c1`, the IC50 in series [2] worked out at 26400 nM; in series [3], 0.13 nM; in series [4], 0.42 nM; in [5] it was 0.65 nM; in [6], 0.7 nM; in series [9], 47 nM. For the same molecule, the selectivity ratio in series [8] is 37700.
Regarding `CCN(CC)CCOc1ccc2c(=O)c3ccc(Cl)c(Cl)c3[nH]c2c1`, the IC50 in series [2] is 46000 nM; in series [3], 2440 nM; in series [4], more than 2500 nM; in [6] it was 749 nM; in series [9], more than 2500 nM. Further, the selectivity ratio in series [8] turned out to be 61.
As for `CN(C)CCOc1ccc2c(=O)c3c(Cl)c(Cl)ccc3[nH]c2c1`, the IC50 in [2] is more than 100000 nM; in [3], 2000 nM; in series [4], 1250 nM; in series [6], 393 nM; in series [9], more than 2500 nM. Also, the selectivity ratio in series [8] is more than 254.
Take `O=c1c2ccc(OCCCl)cc2[nH]c2cc(F)cc(F)c12`: the IC50 in series [2] is more than 200000 nM; in series [3] it was 7 nM; in [4], 22 nM; in series [6] it was 5 nM; in [9] it was 46 nM. For the same molecule, in [8], the selectivity ratio is more than 40000.
As for `CCCN(CCC)CCOc1ccc2[nH]c3cc(F)cc(F)c3c(=O)c2c1`, the IC50 was 20200 nM in series [2]; 1 nM in [3]; 3.2 nM in series [4]; 0.75 nM in [5]; 0.4 nM in [6]; 270 nM in series [9]. In addition, in [8], the selectivity ratio stood at 50600.
On to `CCN(CC)CCOc1ccc2c(=O)c3cc(Cl)c(Cl)cc3[nH]c2c1`, for which the concentration for half-maximal inhibition (IC50) in [2] was more than 100000 nM; in [3] it was 132 nM; in [4] it was 73 nM; in series [6] it was 44 nM; in series [9] it was 507 nM. Further, the selectivity ratio in [8] was more than 2270.
As to `CCCN(CCC)CCOc1ccc2c(=O)c3ccc(C(F)(F)F)cc3[nH]c2c1`, the 50% inhibitory concentration (IC50) in series [2] is more than 100000 nM; in series [3], 0.44 nM; in [4], 5.6 nM; in series [6] it was 26 nM; in series [9], 1540 nM. In addition, the selectivity ratio in series [8] was more than 3850.
`CCCN(CCC)CCOc1ccc2[nH]c3cc(F)cc(OC)c3c(=O)c2c1`: the IC50 in series [2] is 55700 nM; in series [3] it was 105 nM; in [4], 175 nM; in [6] it was 35 nM; in series [9] it was more than 250 nM. The selectivity ratio in series [8] was 1590.
Consider `CCN(CC)CCOc1ccc2c(=O)c3ccc(C(F)(F)F)cc3[nH]c2c1`, for which the IC50 in series [2] was found to be 38600 nM; in series [3], 555 nM; in series [4], 1540 nM; in series [6], 816 nM; in series [9], 1390 nM. In [8], the selectivity ratio is 47.
In the case of `CCN(CC)CCOc1ccc2[nH]c3ccc(Cl)cc3c(=O)c2c1`, the IC50 in [2] was more than 100000 nM; in series [3] it was 399 nM; in [4], 521 nM; in series [6], 159 nM; in [9], 297 nM. The selectivity ratio in series [8] is more than 629.
As to `O=c1c2ccc(OCCCC(F)(F)F)cc2[nH]c2cc(F)cc(F)c12`, the half-life at 1 µM in series [1] was more than 60 min; in series [7], 59 min. Moreover, the IC50 in series [2] is more than 200000 nM; in series [3] it was 0.033 nM; in series [4], 0.5 nM; in series [5] it was 48 nM; in series [6], 0.027 nM; in series [9] it was 40 nM. For the same molecule, the selectivity ratio in [8] was more than 200000.
For `CCCN(CCC)CCOc1ccc2c(=O)c3cc(Cl)ccc3[nH]c2c1`, the half-life at 1 µM in [1] was 12 min; in series [7] it was 16 min. Besides, the IC50 in [2] was more than 100000 nM; in [3], 15 nM; in series [4], 9.2 nM; in series [5], 12.5 nM; in [6], 3.6 nM; in series [9], 317 nM. The selectivity ratio in [8] was more than 27800.
For `O=c1c2ccc(OCCN3CCOCC3)cc2[nH]c2ccc(Cl)c(Cl)c12`, the IC50 is more than 100000 nM in series [2]; 38 nM in [3]; 273 nM in series [4]; 65 nM in series [6]; 196 nM in series [9]. In addition, the selectivity ratio in series [8] is more than 1540.
`O=c1c2ccc(OCCCCl)cc2[nH]c2cc(Cl)c(Cl)cc12`: the IC50 in series [2] is more than 100000 nM; in [3], 161 nM; in series [4], 2330 nM; in series [6], 179 nM; in series [9] it was 945 nM. Moreover, the selectivity ratio in [8] was more than 558.
